Experimental data as given in patent US20230405552A1, “Super Absorbent Polymer and Preparation Method Thereof” (LG Chem, Ltd., priority 2021, published 2023).

Tests used:
[1] = tested on: E. coli (ATCC 25922) standard strain; test: Antibacterial property of polymerizable antibacterial monomer against E. coli (absorbance at 600 nm); type: cell-based, Escherichia coli; conditions: 18 hours at 35° C.; for Optical density: diluted to 1/5, 600 nm
Description: (§1) The monomer was put in a 50 ml conical tube according to the content of Table 1 below, and then 25 ml of a nutrient broth (Becton Dickinson) solution, to which 3000±300 CFU/ml of E. coli (ATCC 25922) standard strain was inoculated, was injected. After culturing for 18 hours in a shaking incubator (Vision Scientific, VS-37SIF) at 35° C., the culture solution was diluted to ⅕ concentration using 1× PBS (Gibco). The absorbance of the diluted solution was measured at a wavelength of 600 nm using a UV-Vis spectrophotometer. At this time, the absorbance measured after culturing the nutrient broth solution to which the bacteria was inoculated without the addition of the monomer was compared to the absorbance of the sample to which the monomer was added, and the degree of growth of the bacteria was examined. The bacterial growth-inhibitory rate was calculated according to the following Equation 1, and the results are shown in Table 1 below. Bacterial growth-inhibitory rate(%)=[(ODReference−ODsample)/ODReference]*100 [Equation 1] in Equation, ODReference represents absorbance of the culture medium of Comparative Experimental Example 1-1 without the antibacterial material, and ODsample represents absorbance of the culture medium with the antibacterial material.

[2] = tested on: Proteus mirabilis (P. mirabilis, ATCC 29906) standard strain; test: Antibacterial property of polymerizable antibacterial monomer against Proteus mirabilis (absorbance at 600 nm); type: cell-based; conditions: 18 hours at 35° C.; for Optical density: diluted to 1/5, 600 nm
Description: as §1, with “To examine the antibacterial properties” for “Bacterial growth-inhibitory rate(%)=[(ODReference−ODsample)/ODReference]*100 [Equation 1] in Equation, ODReference represents absorbance”, “monomer 2-(tert-butylamino)ethyl methacrylate included in Examples and the monomer 2-(dimethylamino)ethyl methacrylate against Proteus mirabilis, the bacterial growth-inhibitory rate (%) against Proteus mirabilis (P. mirabilis) was calculated in the same manner as in the antibacterial property evaluation for E. coli, except that a nutrient broth solution, to which 3000±300 CFU/ml of Proteus mirabilis (P. mirabilis, ATCC 29906) standard strain was inoculated instead of E. coli (ATCC 25922), was used. In calculating the bacteriostatic reduction rate using Equation 1, CReference represents CFU of bacteria after culturing with the monomer” for “culture medium”, “2-1” for “1-1”, “antibacterial” for “antibacterial material, and ODsample represents absorbance of the culture medium with the antibacterial”

[3] = 0.03 g monomer in 25 ml nutrient broth
[4] = 0.05 g monomer in 25 ml nutrient broth
[5] = 0.07 g monomer in 25 ml nutrient broth

C=C(C)C(=O)OCCN(C)C [2-(dimethylamino)ethyl methacrylate]
Bacterial growth-inhibitory rate (%) [1, 3]: 0.00%
Optical density [1, 3]: 0.196
Bacterial growth-inhibitory rate (%) [1, 4]: 3.67%
Optical density [1, 4]: 0.189
Bacterial growth-inhibitory rate (%) [1, 5]: 23.98%
Optical density [1, 5]: 0.149
Bacterial growth-inhibitory rate (%) [2, 3]: 3.37%
Optical density [2, 3]: 0.172
Bacterial growth-inhibitory rate (%) [2, 4]: 20.22%
Optical density [2, 4]: 0.142
Bacterial growth-inhibitory rate (%) [2, 5]: 67.98%
Optical density [2, 5]: 0.057

C=C(C)C(=O)OCCNC(C)(C)C [2-(tert-butylamino)ethyl methacrylate]
Bacterial growth-inhibitory rate (%) [1, 3]: 5.61%
Optical density [1, 3]: 0.185
Bacterial growth-inhibitory rate (%) [1, 4]: 64.29%
Optical density [1, 4]: 0.070
Bacterial growth-inhibitory rate (%) [1, 5]: 95.41%
Optical density [1, 5]: 0.009
Bacterial growth-inhibitory rate (%) [2, 3]: 19.10%
Optical density [2, 3]: 0.144
Bacterial growth-inhibitory rate (%) [2, 4]: 43.82%
Optical density [2, 4]: 0.100
Bacterial growth-inhibitory rate (%) [2, 5]: 94.94%
Optical density [2, 5]: 0.009
